This note sets out measurements from patent US6545053B1, “Tricyclic compounds and drug compositions containing same” (Asahi Kasei Kogyo Kabushiki Kaisha, priority 1996, dated 2003).

Where a name gives a salt, the structure may show the parent alone. Read-outs that look alike come from different tables or passages of the source.

One assay has as its target T1, human β3 (Homo sapiens, UniProt P13945).
T1 construct: And then full length of human β3 gene was cloned using this fragment as a probe; expressed in transfected cells; host or cells: CHO cells (Chinese hamster ovary), pcDNA3 vector
In words: Human β3-agonist activity (cAMP in CHO cells transfected with human β3 gene). Format: cell-based. Particulars: for Emax: CHO, read-out: Intrinsic activity (%). The protocol: Human β3-agonist Activity
Human β3-agonist activity was examined using CHO cells (chinese hamster ovarian cells) to which pcDNA3 (in vitrogen) cells inserted human β3 gene was transfected. Human β3 fragment was obtained by PCR using human fat tissue cDNA (supplied from Clontech) with a β3 primer [Krief et al, J. Clin. Invest.
The cells were cultured in a HAM F-12 medium containing 10% of fetal bovine serum, 400 μg/ml of Geneticin (Gibco BRL). 100 U/ml penicillin and 100 μg/ml streptomycin. 5×10^5 cells were placed on a 6-well plate and cultured for 24 hours, after which the medium was changed to a HAM F-12 medium without serum and was kept for 2 hours. Each test compound was first dissolved in DMSO, and then diluted with a HAM F-12 medium containing 1 mM isobutylmethyl xanthine and 1 mM ascorbic acid. A 10-fold dilution in the range of 10^−5 to 10^−12 M was added into the cell.
After culturing for 30 minutes, culture medium was withdrawn, 0.5 ml of 1 N NaOH was added and was kept for 20 minutes. And then 0.5 ml of 1 N acetic acid was added with subsequent agitation and centrifugation. Finally the concentration of cAMP were analyzed using cAMP EIA KIT (Cayman). […] Isoprotelenol was purchased from Research Biochimicals International.

The next assay has as its system canine adipocytes. In words: Lipolytic activity in canine fatty cell (glycerol release). Format: cell-based, dogs. The settings on record: Canis lupus familiaris, Adipocyte; for EC50: 1 h, glycerol release, canine adipocytes, read-out: ED50 (the source's name); for Emax: read-out: Intrinsic activity (%). The protocol:
Lipolytic Activity in Canine Fatty Cell
Adipose tissues in the omentum were collected from dogs and minced and washed. Krebs-Ringer buffer solution containing 1 mg/ml Collagenase (Sigma) and 1% of bovine serum albumin was added in an amount of 3 ml per one gram of the tissue. These cells were then incubated at 37° C. for 30 minutes with shaking and then undigested tissues were removed with a nylon filter. The resulting adipocytes were washed four times with Krebs-Ringer buffer, and then the concentration of cells was diluted to 2×10^5/ml with Krebs-Ringer buffer solution containing 4% of bovine serum albumin. These cells were transferred to Eppendorf tubes each in an amount of 300 μl.
Each 300 μl of a culture medium containing the test compounds were added to these tubes and was held at 37° C. for 1 hour whith shaking. Stimulation was stoped by cooling with ice. After centrifugation, the adipocytes were taken off with an aspirator, whereupon the glycerol was determined using F-KIT GLTCEROL (Behringer-Manheim).

[1] abbreviates: cAMP, CHO cells with human β3, read-out: ED50 (the source's name).

T1 sequence (P13945 whole entry, the tested form may be a part): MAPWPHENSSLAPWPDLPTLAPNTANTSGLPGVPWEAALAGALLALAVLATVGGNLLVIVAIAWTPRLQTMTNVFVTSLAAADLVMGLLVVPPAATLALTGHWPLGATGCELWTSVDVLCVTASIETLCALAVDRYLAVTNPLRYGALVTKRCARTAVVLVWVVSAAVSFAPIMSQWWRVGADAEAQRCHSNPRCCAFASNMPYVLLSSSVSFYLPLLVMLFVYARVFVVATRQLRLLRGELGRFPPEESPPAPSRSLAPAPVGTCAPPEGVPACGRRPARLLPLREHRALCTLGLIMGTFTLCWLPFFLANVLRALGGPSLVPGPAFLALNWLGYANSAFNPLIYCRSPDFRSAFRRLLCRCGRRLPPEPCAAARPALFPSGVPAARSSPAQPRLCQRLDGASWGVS

For the compound `CS(=O)(=O)Nc1cc(C(O)CNCCOc2ccc3c(c2)oc2ccccc23)ccc1O` (racemic) [Example 4, (±)-N-[5-[2-[2-(Dibenzofuran-3-yloxy)ethylamino]-1-hydroxyethyl]-2-hydroxyphenyl]methanesulfonamide Hydrochloride], the results for the EC50 at human β3 and with canine adipocytes were 0.52 nM and 0.7 nM, respectively. Further, the Emax came to 80% on human β3 and 88% in the assay with canine adipocytes.
Regarding `CS(=O)(=O)Nc1cccc(C(O)CNCCOc2ccc3c(c2)oc2ccccc23)c1` (racemic) [Example 9, (±)-N-[3-[2-[2-(Dibenzofuran-3-yloxy)ethylamino]-1-hydroxyethl]phenyl]methanesulfonamide Hydrochloride], the results for the Emax at human β3 and with canine adipocytes were 85% and 106%, respectively. For the same compound, the EC50 at human β3 (setting [1]) was determined as 750 nM; with canine adipocytes it was 250 nM.
For `CN(C)S(=O)(=O)Nc1cc(C(O)CNCCOc2ccc3c(c2)[nH]c2ccccc23)ccc1O` (racemic) [Example 25, (±)-N′-[5-[2-[2-(9H-Carbazol-2-yloxy)ethylamino]-1-hydroxyethyl]-2-hydroxyphenyl]-N,N-dimethylsulfamide Hydrochloride], the values for the EC50 at human β3 and in the assay with canine adipocytes were 2.1 nM and 510 nM, respectively. For the same compound, the results for the Emax at human β3 and in the assay on canine adipocytes were 95% and 70%, respectively.
On to `CN(Cc1ccccc1)S(=O)(=O)Nc1cc(C(O)CNCCOc2ccc3c(c2)[nH]c2ccccc23)ccc1O` (racemic) [Example 87, (±)-N′-[5-[2-[2-(9H-Carbazol-2-yloxy)ethylamino]-1-hydroxyethyl]-2-hydroxyphenyl]-N-methyl-N-benzylsulfamide Hydrochloride], for which, at human β3, the EC50 stood at 84 nM and the Emax was found to be 138%.
As to `CCN(CC)S(=O)(=O)Nc1cc(C(O)CNCCOc2ccc3c(c2)[nH]c2ccccc23)ccc1O` (racemic) [Example 88, (±)-N′-[5-[2-[2-(9H-Carbazol-2-yloxy)ethylamino]-1-hydroxyethyl]-2-hydroxyphenyl]-N,N-diethylsulfamide Hydrochloride], on human β3, the EC50 is 390 nM and the Emax is 86%.
Consider `CN(C)S(=O)(=O)c1cc(C(O)CNCCOc2ccc3c(c2)[nH]c2ccccc23)ccc1O` (racemic) [Example 89, (±)-N,N-Dimethyl-(5-[2-[2-(9H-carbazol-2-yloxy)ethylamino]-1-hydroxyethyl]-2-hydroxy]benzenesulfonamide Hydrochloride], for which the Emax at human β3 worked out at 73%. In addition, on human β3 (setting [1]), the EC50 amounted to 350 nM.
For the compound `COC(CNCCOc1ccc2c(c1)[nH]c1ccccc12)c1ccc(O)c(NS(C)(=O)=O)c1` (racemic) [Example 90, (±)-N-[5-[2-[2-(9H-Carbazol-2-yloxy)ethylamino]-1-methoxyethyl]-2-hydroxyphenyl]methanesulfonamide Hydrochloride], at human β3, the EC50 turned out to be 190 nM and the Emax worked out at 102%.
Taken in the same sequence, the figures for `CS(=O)(=O)Nc1cc([C@@H](O)CNCCOc2ccc3c(c2)[nH]c2ccccc23)ccc1O` [Example 12, (R)-N-[5-[2-[2-(9H-Carbazol-2-yloxy)ethylamino]-1-hydroxyethyl]-2-hydroxyphenyl]methanesulfonamide Hydrochloride] were 0.14 nM and 113%.
For the compound `CS(=O)(=O)Nc1cc([C@H](O)CNCCOc2ccc3c(c2)[nH]c2ccccc23)ccc1O` [Example 13, (S)-N-[5-[2-[2-(9H-Carbazol-2-yloxy)ethylamino]-1-hydroxyethyl]-2-hydroxyphenyl]methanesulfonamide Hydrochloride], at human β3, the EC50 is 2.7 nM and the Emax was determined as 110%.
In the case of `CS(=O)(=O)Nc1cccc([C@@H](O)CNCCOc2ccc3c(c2)[nH]c2ccccc23)c1` [Example 14, (R)-N-[3-[2-[2-(9H-Carbazol-2-yloxy)ethylamino]-1-hydroxyethyl]phenyl]methanesulfonamide Hydrochloride], on human β3, the EC50 came out at 2.8 nM and the Emax was 97%.
On to `CS(=O)(=O)Nc1cccc([C@H](O)CNCCOc2ccc3c(c2)[nH]c2ccccc23)c1` [Example 15, (S)-N-[3-[2-[2-(9H-Carbazol-2-yloxy)ethylamino]-1-hydroxyethyl]phenyl]methanesulfonamide Hydrochloride], for which, on human β3, the EC50 turned out to be 110 nM and the Emax was 88%.
In the case of `C[C@H](COc1ccc2c(c1)[nH]c1ccccc12)NC[C@H](O)c1ccccc1` [Example 35, (R,R)-2-[N-[1-(9H-Carbazol-2-yloxy)propan-2-yl]amino]-1-phenylmethanol Hydrochloride], the Emax at human β3 was determined as 90%. Also, the EC50 on human β3 (setting [1]) was found to be 520 nM.
Consider `CS(=O)(=O)Nc1cccc([C@@H](O)CNCCOc2ccc3c(c2)oc2ccccc23)c1` [Example 70, (R)-N-[3-[2-[2-(Dibenzofuran-3-yloxy)ethylamino]-1-hydroxyethyl]phenyl]methanesulfonamide Hydrochloride], for which, on human β3, the EC50 amounted to 300 nM and the Emax amounted to 76%.
For `CN(C)S(=O)(=O)Nc1cc([C@@H](O)CNCCOc2ccc3c(c2)[nH]c2ccccc23)ccc1O` [Example 73, (R)-N′-[5-[2-[2-(9H-Carbazol-2-yloxy)ethylamino]-1-hydroxyethyl]-2-hydroxyphenyl]-N,N-dimethylsulfamide Hydrochloride], on human β3, the EC50 was 0.038 nM and the Emax is 102%.
The corresponding values for `CN(C)S(=O)(=O)Nc1cc([C@H](O)CNCCOc2ccc3c(c2)[nH]c2ccccc23)ccc1O` [Example 74, (S)-N′-[5-[2-[2-(9H-Carbazol-2-yloxy)ethylamino]-1-hydroxyethyl]-2-hydroxyphenyl]-N,N-dimethylsulfamide Hydrochloride] are 0.74 nM and 114%.
As for `CN(C)S(=O)(=O)Nc1cc([C@@H](O)CNCCOc2ccc3c(c2)oc2ccccc23)ccc1O` [Example 75, (R)-N′-[5-[2-[2-(Dibenzofuran-3-yloxy)ethylamino]-1-hydroxyethyl]-2-hydroxyphenyl]-N,N-dimethylsulfamide Hydrochloride], at human β3, the EC50 came out at 88 nM and the Emax came out at 105%.
Taken in the same sequence, the figures for `CN(C)S(=O)(=O)Nc1cc([C@H](O)CNCCOc2ccc3c(c2)oc2ccccc23)ccc1O` [Example 76, (S)-N′-[5-[2-[2-(Dibenzofuran-3-yloxy)ethylamino]-1-hydroxyethyl]2-hydroxyphenyl]-N,N-dimethylsulfamide Hydrochloride] were 520 nM and 131%.
Consider `CS(=O)(=O)Nc1cc([C@@H](O)CNCCOc2ccc3c(c2)[nH]c2ccccc23)ccc1F` [Example 77, (R)-N-[5-[2-[2-(9H-Carbazol-2-yloxy)ethylamino]-1-hydroxyethyl]-2-fluorophenyl]methanesulfonamide Hydrochloride], for which, at human β3, the EC50 was determined as 21 nM and the Emax came to 100%.
For the compound `CS(=O)(=O)Nc1cc([C@H](O)CNCCOc2ccc3c(c2)[nH]c2ccccc23)ccc1F` [Example 78, (S)-N-[5-[2-[2-(9H-Carbazol-2-yloxy)ethylamino]-1-hydroxyethyl]-2-fluorophenyl]methanesulfonamide Hydrochloride], on human β3, the EC50 worked out at 51 nM and the Emax is 110%.
Consider `CS(=O)(=O)Nc1cc([C@@H](O)CNCCOc2ccc3c(c2)[nH]c2ccccc23)ccc1Cl` [Example 79, (R)-N-[5-[2-[2-(9H-Carbazol-2-yloxy)ethylamino]-1-hydroxyethyl]-2-chlorophenyl]methanesulfonamide Hydrochloride], for which, on human β3, the EC50 came to 1.2 nM and the Emax stood at 107%.
In the case of `CS(=O)(=O)Nc1cc([C@H](O)CNCCOc2ccc3c(c2)[nH]c2ccccc23)ccc1Cl` [Example 80, (S)-N-[5-[2-[2-(9H-Carbazol-2-yloxy)ethylamino]-1-hydroxyethyl]-2-chlorophenyl]methanesulfonamide Hydrochloride], on human β3, the EC50 stood at 57 nM and the Emax was found to be 110%.
On to `CNS(=O)(=O)c1cc([C@@H](O)CNCCOc2ccc3c(c2)[nH]c2ccccc23)ccc1O` [Example 81, (R)-N-methyl-[5-(2-[2-(9H-Carbazol-2-yloxy)ethylamino]-1-hydroxyethyl]-2-hydroxy]benzenesulfonamide Hydrochloride], for which the Emax at human β3 worked out at 98%. At human β3 (setting [1]), the EC50 amounted to 6.2 nM.
With `CC(C)NCC(O)c1ccc(O)c(O)c1` (stereo not shown) [Isoproterenol, reference compound], in the assay with canine adipocytes, the EC50 stood at 1.7 nM and the Emax stood at 100%.
